Experimental data: patent publication US20220390471A1, “INTEGRATED DRUG DISCOVERY PLATFORM FOR PROTEIN MISFOLDING DISORDERS ASSOCIATED WITH METABOLITE ACCUMULATION” (Ramot at Tel-Aviv University Ltd., priority 2021, published 2022)
Like-named read-outs stand apart in the source and are kept apart here.

Columns and labels:
WT yeast strain (BY4741) = test: Yeast growth assay, WT strain; type: cell-based, Saccharomyces cerevisiae; details: 0.3 mM TA, SD with 13 mg/L cysteine and 100 mg/L Hcy, 27 hours
Method: (§1) WT and cys4Δ strains were grown overnight at 30° C. Unless otherwise specified, the strains were grown on synthetic defined medium (SD) containing 20 mg/L L-methionine, 20 mg/L L-histidine monohydrochloride monohydrate, 20 mg/L uracil and 30 mg/L L-leucine. Cysteine was added to a final concentration of 13 mg/L. Hcy was added at the indicated concentrations.
(§2) For OD600 measurements, strains were diluted to OD600 0.01. 200 μL of cells were platted on 96 wells plates and incubated at 30° C. for 30 hours with continuous shaking. OD600 was measured using Tecan™ SPARK 10M plate reader.
(§3) The percentage of growth analysis (FIG. 10F) represents the OD600 levels following 27 hours of growth in the plate reader. The percentage of growth represents the growth under the indicated conditions, with or without 0.3 mM TA, compared to the growth of WT without TA.

cys4Δ yeast strain [1] = type: cell-based, Saccharomyces cerevisiae
Method: The cys4 gene was disrupted in wild-type (WT) yeast strain (BY4741) via homologous recombination using PCR fragments amplified from the plasmid pFA6a-KanMX6 as a template with primer DL154:
as §1
For spotting assays, strains were diluted to 6.25*10^7 cells/mL and then 5-fold serially diluted and spotted on the indicated plates. Plates were incubated at 30° C. for 2-3 days.
as §2, §3

Hcy fibrils [2] = test: TEM of pre-formed solutions of Hcy with polyphenols; details: Hcy 2 mg/mL + 1 mM EGCG or 0.1 mM TA
Method: Hcy was dissolved at 90° C. in PBS at various concentrations followed by gradual cooling of the solution. Where indicated, EGCG or TA (final concentration of 1 mM and 0.1 mM, respectively) were added before gradual cooling. Subsequently, 10 μL samples were placed on 400-mesh copper grids. After 2 min, excess fluids were removed. Samples were viewed using a JEOL 1200EX electron microscope operating at 80 kV.

Hcy fibrils [3] = test: ThT binding assay, inhibition of Hcy self-assembly by polyphenols; type: biochemical; details: 1 mM EGCG or 0.1 mM TA added at timepoint zero; Hcy in PBS; emission 480 nm, excitation 440 nm
Method: Hcy was dissolved at 90° C. in PBS to a final concentration of 10, 5 and 2 mg/mL and maintained at 90° C. until the beginning of the measurement. Samples containing polyphenols were immediately mixed with the inhibitors. EGCG or TA (final concentration of 1 mM and 0.1 mM, respectively). As a control, Hcy was diluted with PBS alone to the same final concentrations. ThT in PBS was added to a final concentration of 20 μM for 5 and 10 mg/ml Hcy or 40 μM for 2 mg/ml Hcy. Next, the solutions were plated in a black 96-well, clear, and flat bottom microplate (Greiner) and self-assembly kinetics were recorded over time at room temperature (uncontrolled gradual cooling of the solutions) with short shaking before each read. ThT emission data at 480 nm (excitation at 440 nm), were measured using a Tecan™ SPARK 10 M plate reader, gain of 100 for 2 mg/ml, and using a Tecan™ Infinite 200 PRO plate reader, gain of 90 for 5 and 10 mg/ml.

SH-SY5Y cells [4] = test: MTT cell viability assay, SH-SY5Y cells; type: cell-based, human; details: for Cell viability with inhibitor-containing Hcy solution compared to Hcy alone (MTT): Hcy 2 mg/mL with EGCG 0.1 mM or TA 0.01 mM
Method: SH-SY5Y cells (ATCC CRL-2266) or HEK293 cells (ATCC® CRL-1573) were cultured (2×10^5 cells/mL) in DMEM/Nutrient Mixture F12 (Ham's; 1:1) supplemented with 10% fetal bovine serum (FBS) in 96-well tissue microplates (100 μL per well) and allowed to adhere overnight at 37° C. Half of each plate was plated with cells, with the other half later serving as a control containing solutions alone. The treatment solutions were prepared as follows: Hcy or methionine were dissolved at 90° C. and at various concentrations in cell media without FBS, followed by gradual cooling of the solutions. For solutions containing polyphenols, Hcy (final concentration of 2 mg/mL) was similarly dissolved in cell media and mixed with EGCG or TA (final concentration of 0.1 mM and 0.01 mM, respectively, stock solution dissolved in cell medium) before gradual cooling. The medium was replaced and cells were treated with the solutions (100 μL per well), followed by overnight incubation at 37° C. Control cells were incubated with medium that was treated in the same manner (without Hcy). Controls of media supplemented with the inhibitors, without Hcy, were examined as well. Cell viability was evaluated using the 3-(4,5-dimethylthiazolyl-2)-2,5-diphenyltetrazolium bromide (MTT) assay. Briefly, 10 μL of 5 mg/mL MTT dissolved in PBS was added to each well. After a 4 hours incubation at 37° C. 100 μL of extraction buffer […] dissolved in a mixture of 50% DMF and 50% DDW (pH 4.7)] was added to each well, and the plates were further incubated at 37° C. for 30 min. Finally, color intensity was measured using an ELISA reader at 570 nm. Blank measurements of the solutions without cells were respectively subtracted. The data points are presented as mean±SD. For inhibitors and methionine controls, two-tailed Student's t test was performed when two groups were compared.

[5] = TEM of metabolite self-assembly; type: physicochemical; details: dissolved at 90° C., gradual cooling
Method: Hcy was dissolved at 90° C. in PBS at various concentrations followed by gradual cooling of the solution. […] Subsequently, 10 μL samples were placed on 400-mesh copper grids. After 2 min, excess fluids were removed. Samples were viewed using a JEOL 1200EX electron microscope operating at 80 kV.

cys4Δ yeast strain [6] = test: Aggregation level assay in yeast (ProteoStat, flow cytometry); type: cell-based, Saccharomyces cerevisiae; details: cys4Δ with 100 mg/L Hcy compared to WT and to mutant without Hcy
Method: For each sample, 2×10^6 cells/mL of logarithmic cells were resuspended with ProteoStat dye (Enzo Life Sciences). Cells were incubated for 15 min at room temperature protected from light. Flow cytometry was preformed using Stratedigm S1000EXi and the CellCapTure software (Stratedigm, San Jose, Calif.). Live cells were gated (P1) by forward scatter and side scatter. Fluorescence channels for FITC (530/30) and PE-Cy5 (676/29) were used utilizing a 488 nm laser source. A total of 50,000 events were acquired for each sample. Analyses were performed using the FlowJo software (TreeStar, version 14).

β-amyloid1-42 = biological target: T1, β-amyloid1-42 (Homo sapiens, UniProt P05067); test: In-vitro seeding of β-amyloid1-42 by Hcy assemblies (ThT binding assay); type: biochemical; details: 20% v/v pre-formed Hcy assemblies (2, 5, 10 mg/mL stocks), 3 μM β-amyloid1-42 monomers, 37° C.
T1 construct: purchased rPeptide
T1 sequence (P05067 672-713 limits assumed): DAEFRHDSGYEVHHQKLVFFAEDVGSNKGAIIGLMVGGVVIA
Method: Hcy was dissolved at 90° C. in PBS followed by gradual cooling of the solution. […] (rPeptide) was dissolved in DMSO to a concentration of 120 μM. The monomeric protein was mixed with pre-formed 20% v/v Hcy assemblies (taken from 10, 5 or 2 mg/mL stock solutions), or with an equivalent volume of PBS as a control, to a final concentration of 3 μM β-amyloid1-42 ThT was added to a final concentration of 20 μM. Aggregation was monitored using Tecan™ Infinite 200 PRO fluorescence plate reader over time at 37° C. Blank measurements of Hcy only (without β-amyloid) were respectively subtracted.

HEK293 cells = test: MTT cell viability assay, HEK293 cells; type: cell-based; details: HEK293 non-neuronal cell line, 24 hours
Method: SH-SY5Y cells (ATCC CRL-2266) or HEK293 cells (ATCC® CRL-1573) were cultured (2×10^5 cells/mL) in DMEM/Nutrient Mixture F12 (Ham's; 1:1) supplemented with 10% fetal bovine serum (FBS) in 96-well tissue microplates (100 μL per well) and allowed to adhere overnight at 37° C. Half of each plate was plated with cells, with the other half later serving as a control containing solutions alone. […] For solutions containing polyphenols, Hcy (final concentration of 2 mg/mL) was similarly dissolved in cell media and mixed with EGCG or TA (final concentration of 0.1 mM and 0.01 mM, respectively, stock solution dissolved in cell medium) before gradual cooling. The medium was replaced and cells were treated with the solutions (100 μL per well), followed by overnight incubation at 37° C. Control cells were incubated with medium that was treated in the same manner (without Hcy). Controls of media supplemented with the inhibitors, without Hcy, were examined as well. Cell viability was evaluated using the 3-(4,5-dimethylthiazolyl-2)-2,5-diphenyltetrazolium bromide (MTT) assay. Briefly, 10 μL of 5 mg/mL MTT dissolved in PBS was added to each well. After a 4 hours incubation at 37° C. […] Finally, color intensity was measured using an ELISA reader at 570 nm. […]

SH-SY5Y cells [7] = test: Annexin V and propidium iodide apoptosis assay (flow cytometry); type: cell-based, human
Method: SH-SY5Y cells were cultured at 2×10^5 cells/mL in 24-well plates in DMEM/Nutrient Mixture F12 (Ham's; 1:1) supplemented with 10% FBS and were allowed to adhere overnight at 37° C. The treatment solutions containing Hcy and methionine were prepared as described above for the MTT assay. Cells were treated with the solutions followed by overnight incubation at 37° C. Control cells were incubated with medium that was treated in the same manner without Hcy. The apoptotic effect was evaluated using the MEBCYTO Apoptosis kit (MBL International), according to the manufacturer's instructions. Briefly, the adherent cells were trypsinized, detached and combined with floating cells from the incubated growth medium. Cells were then centrifuged and washed once with PBS and once with binding buffer. Cells were subsequently incubated with annexin V-FITC and PI for 15 min in the dark, resuspended in 200 μL binding buffer and analyzed by flow cytometry using a single laser-emitting excitation light at 488 nm. Data from at least 10^4 cells were acquired using the BD FACSort and the CellQuest software (BD Biosciences). Analysis was performed using the FlowJo software (TreeStar, version 14).

[8] = ThT binding assay of metabolite self-assembly; type: physicochemical; details: emission 480 nm
Method: Hcy was dissolved at 90° C. in PBS to a final concentration of 10, 5 and 2 mg/mL and maintained at 90° C. until the beginning of the measurement. Samples containing polyphenols were immediately mixed with the inhibitors. […] As a control, Hcy was diluted with PBS alone to the same final concentrations. […] Next, the solutions were plated in a black 96-well, clear, and flat bottom microplate (Greiner) and self-assembly kinetics were recorded over time at room temperature (uncontrolled gradual cooling of the solutions) with short shaking before each read. […] Following an overnight incubation at room temperature with gentle rotation (uncontrolled gradual cooling of solutions), ThT emission signal at 480 nm (excitation at 450 nm) was measured at room temperature with short shaking before each read and using a Tecan™ Infinite 200 PRO plate reader, gain 90.

SH-SY5Y cells [9] = test: ProteoStat staining, confocal microscopy of treated SH-SY5Y cells; type: cell-based, human; details: Hcy assemblies 2 mg/mL, 4 hours
Method: SH-SY5Y cells: 2×10^5 cells/mL were cultured in DMEM/Nutrient Mixture F12 (Ham's; 1:1) supplemented with 10% FBS in 24-well plate on glass slides coated with 0.01% Poly-L-Lysine. When reaching ˜70-80% confluency, cells were treated with Hcy (2 mg/mL dissolved at 90° C. in cell media without FBS, followed by gradual cooling of the solution). After 4 hours of incubation, the cells were immediately supplemented with ProtesoStat dye diluted 1:250 in ProteoStat assay buffer followed by incubation for 15 min at room temperature protected from light. Cells were imaged using Leica TCS SP8 laser confocal microscope with ×63 1.4 NA or ×100 1.4 NA oil objectives. An argon laser with 488 excitation line was used for ProteoStat (emission wavelength, 500-600 nm).

SMILES: O=C(OC[C@H]1O[C@@H](OC(=O)c2cc(O)c(O)c(OC(=O)c3cc(O)c(O)c(O)c3)c2)[C@H](OC(=O)c2cc(O)c(O)c(OC(=O)c3cc(O)c(O)c(O)c3)c2)[C@@H](OC(=O)c2cc(O)c(O)c(OC(=O)c3cc(O)c(O)c(O)c3)c2)[C@@H]1OC(=O)c1cc(O)c(O)c(OC(=O)c2cc(O)c(O)c(O)c2)c1)c1cc(O)c(O)c(OC(=O)c2cc(O)c(O)c(O)c2)c1 [TA, tannic acid]
- Cell growth with TA (percentage of growth, OD600) (WT yeast strain (BY4741)): no effect
- Cell growth with TA (percentage of growth, OD600) (cys4Δ yeast strain [1]; cys4Δ, 0.3 mM TA, SD with 13 mg/L cysteine and 100 mg/L Hcy, 27 hours): significantly improved the cell growth
- Structures seen by TEM in mixture of Hcy with polyphenol (Hcy fibrils [2]): no structures were formed
- Inhibition of Hcy fibril formation, ThT fluorescence intensity over time (Hcy fibrils [3]): significant reduction in the ThT fluorescence intensity curves
- Cell viability with inhibitor-containing Hcy solution compared to Hcy alone (MTT) (SH-SY5Y cells [4]; SH-SY5Y, 24 hours): significant increase in cell viability

SMILES: NC(CCS)C(=O)O (centres unmarked) [Hcy, 2-Amino-4-sulfanylbutanoic acid]
- Formation of amyloid-like fibrils (TEM) [5]: formed amyloid-like fibrils
- Degree of aggregation upon Hcy feeding (ProteoStat flow cytometry) (cys4Δ yeast strain [6]): significantly higher degree of aggregation
- Cross-seeding of β-amyloid1-42 aggregation (ThT signal) (β-amyloid1-42): induced β-amyloid1-42 aggregation in a concentration-dependent manner
- Cytotoxicity (MTT cell viability) (HEK293 cells): no significant toxicity
- Apoptotic activity (annexin V / PI) (SH-SY5Y cells [7]): stimulated apoptotic activity in a concentration-dependent manner
- Growth sensitivity to Hcy supplied in the growth medium (cys4Δ yeast strain [1]; cys4Δ compared to WT, SD media with Hcy at different concentrations): sensitivity to Hcy supplied in the growth medium was observed
- ThT fluorescence of self-assembly [8]: higher metabolite concentrations showing stronger ThT fluorescence
- Detection of amyloid-like structures in cells (ProteoStat) (SH-SY5Y cells [9]): amyloid-like structures in treated SH-SY5Y cells
- Cytotoxicity (MTT cell viability) (SH-SY5Y cells [4]): dose-dependent cytotoxicity
- Cell death (MTT) (SH-SY5Y cells [4]; SH-SY5Y, 24-hour treatment with pre-formed Hcy assemblies in cell medium): up to 80%

SMILES: CSCC[C@H](N)C(=O)O [methionine]
- Formation of amyloid-like fibrils (TEM) [5]: did not form amyloid-like fibrils
- Apoptotic activity (annexin V / PI) (SH-SY5Y cells [7]; SH-SY5Y, treated for 24 hours): did not show any apoptotic effect
- ThT fluorescence of self-assembly [8]: did not show a fluorescence signal
- Cytotoxicity (MTT cell viability) (SH-SY5Y cells [4]; SH-SY5Y, 24-hour treatment, solutions prepared in cell medium): did not show any toxicity

SMILES: O=C(O[C@@H]1Cc2c(O)cc(O)cc2O[C@@H]1c1cc(O)c(O)c(O)c1)c1cc(O)c(O)c(O)c1 [EGCG, epigallocatechin gallate]
- Structures seen by TEM in mixture of Hcy with polyphenol (Hcy fibrils [2]): no structures were formed
- Inhibition of Hcy fibril formation, ThT fluorescence intensity over time (Hcy fibrils [3]): significant reduction in the ThT fluorescence intensity curves
- Cell viability, inhibitors alone (MTT) (SH-SY5Y cells [4]; SH-SY5Y, 24 hours, EGCG 0.1 mM or TA 0.01 mM without Hcy): did not affect cell viability
- Cell viability with inhibitor-containing Hcy solution compared to Hcy alone (MTT) (SH-SY5Y cells [4]; SH-SY5Y, 24 hours): significant increase in cell viability
